{
  "source": "patent US12252457B2",
  "about": "“Compositions and methods for reducing tactile dysfunction, anxiety, and social impairment” (President and Fellows of Harvard College, priority 2018, dated 2025)",
  "key": {"[1]": {"target": "T1, human GABA-A α1β3γ2 ion channels (Homo sapiens, UniProt P14867+P28472)", "T1 construct": "expressed in transfected cells", "T1 sequence (P14867 28-456)": "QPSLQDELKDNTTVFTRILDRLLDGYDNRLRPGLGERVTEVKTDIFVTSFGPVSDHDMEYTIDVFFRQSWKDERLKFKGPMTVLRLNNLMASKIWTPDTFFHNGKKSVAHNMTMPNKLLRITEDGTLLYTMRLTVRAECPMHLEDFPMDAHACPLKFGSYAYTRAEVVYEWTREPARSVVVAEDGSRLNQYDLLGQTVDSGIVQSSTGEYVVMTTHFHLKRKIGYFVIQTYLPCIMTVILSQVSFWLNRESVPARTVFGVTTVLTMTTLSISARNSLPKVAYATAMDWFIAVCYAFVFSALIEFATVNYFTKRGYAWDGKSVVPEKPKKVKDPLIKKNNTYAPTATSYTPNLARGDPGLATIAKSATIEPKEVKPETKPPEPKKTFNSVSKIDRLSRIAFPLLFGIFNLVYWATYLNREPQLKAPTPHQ", "T1 sequence (P28472 26-473)": "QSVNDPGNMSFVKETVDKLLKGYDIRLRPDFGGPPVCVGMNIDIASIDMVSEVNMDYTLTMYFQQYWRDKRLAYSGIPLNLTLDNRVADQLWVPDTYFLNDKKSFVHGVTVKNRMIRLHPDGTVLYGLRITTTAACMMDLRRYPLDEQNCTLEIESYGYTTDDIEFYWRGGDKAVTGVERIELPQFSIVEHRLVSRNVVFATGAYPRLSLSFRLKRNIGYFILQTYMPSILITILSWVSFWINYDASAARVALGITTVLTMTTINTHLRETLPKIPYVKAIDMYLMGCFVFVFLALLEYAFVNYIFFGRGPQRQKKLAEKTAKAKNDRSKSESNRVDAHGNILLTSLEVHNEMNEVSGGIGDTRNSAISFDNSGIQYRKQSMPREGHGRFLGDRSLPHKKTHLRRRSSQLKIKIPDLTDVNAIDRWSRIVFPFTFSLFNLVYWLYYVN", "T1 sequence (P18507 40-467 partner limits assumed)": "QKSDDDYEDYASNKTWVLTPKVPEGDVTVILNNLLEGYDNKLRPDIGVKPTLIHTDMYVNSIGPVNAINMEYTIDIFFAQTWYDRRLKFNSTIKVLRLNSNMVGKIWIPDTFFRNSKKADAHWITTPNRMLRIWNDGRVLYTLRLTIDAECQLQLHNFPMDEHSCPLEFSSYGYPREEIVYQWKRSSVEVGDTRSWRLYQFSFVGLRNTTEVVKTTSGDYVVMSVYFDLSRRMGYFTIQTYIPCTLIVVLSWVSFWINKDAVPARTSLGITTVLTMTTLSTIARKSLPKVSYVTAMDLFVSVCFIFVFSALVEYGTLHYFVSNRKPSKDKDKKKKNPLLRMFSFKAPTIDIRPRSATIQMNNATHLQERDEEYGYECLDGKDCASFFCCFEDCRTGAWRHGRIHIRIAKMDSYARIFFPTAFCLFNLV", "assay": "Human GABA-A receptor IonFlux HT agonist assay (Cl-flux), α1β3γ2", "assay_type": "cell-based", "settings": "for Normalized Peak hGABAA α1β3γ2 Current (%) Agonist, Mean: normalized to EC100 GABA (30 μM)", "method": "Six additions of 0.33% DMSO for 2 seconds were introduced to the cells to act as a time matched vehicle control for the agonist. Note: The test compound was applied over two ‘experimental patterns’ in increasing concentrations. […] Time-matched negative and reference compound data are included for comparison.\nThe supplied compounds were prepared in DMSO to concentrations that were 300× the final assay concentrations of 0.1, 0.3, 1, 3, 10, 30 and 100 μM. Aliquots were taken out and diluted 300× into external buffer to give the final assay concentration. All wells included a final DMSO concentration of 0.33% including all control wells.\nAll recordings were obtained from a holding potential of −60 mV. The compound addition sequence that was used for all additions was the same for all assays. […] Each test concentration of compound was applied for 2 seconds followed by 30 seconds wash. The process was repeated with the next ascending concentration of test compound up to a maximum of six concentrations per well (FIG. 14).\nPeak inward currents in response to the additions of compound were measured. […] All data were first exported to an Excel compatible data file and then analyzed using Graph Pad Prism software."}, "[2]": {"tested_on": "SNL rats", "assay": "Rat spinal nerve ligation (SNL) model of neuropathic pain, Von Frey 50% paw withdrawal threshold", "assay_type": "in vivo, SD Rat", "settings": "for 50% g Threshold, individual animals: 5 mg/kg; for neuropathic pain sensitivity / mechanical hypersensitivity (mechanical allodynia): SNL rats, Von Frey stimulation of hindpaw glabrous skin; for 50% g Threshold, group Mean: n=8", "method": "Chung surgery were conducted on anesthetized rats. Rats were habituated in the testing environment for 15 minutes before allodynia measurement (2-3 times). Pre-dose baseline were taken on day 9 post surgery. Rats that don't show allodynic response at this point were excluded. SNL rats with a paw withdrawal threshold >4 g. The animals were grouped according to 50% paw withdrawal threshold (g) and weight. The animals were dosed test articles and vehicle according to the dose protocol. On the testing day (Day 9), rats were dosed with testing articles with 16 min interval between groups. Rats were measured for allodynic response at 0.75, 1.5, 3 h time point post dosing. All values will be expressed as mean±S.E.M. The significance of the differences among groups will be evaluated by two-way ANOVA followed by Dunnett's test using graphpad Prism 6 software. A p value of less than 0.05 is considered statistically significant."}, "[3]": {"settings": "0 Hour (pre-dose baseline), 5 mpk IP"}, "[4]": {"settings": "printed in the 0.75 Hour column, 5 mpk IP"}, "[5]": {"settings": "printed in the 1.5 Hour column, 5 mpk IP"}, "[6]": {"settings": "printed in the 3 Hour column, 5 mpk IP"}},
  "note": "Several values for one entry are separate records, joined by “and”; a condition that tells them apart may be missing. Identical values can stand only once. Counter-ions that a name gives are not always drawn.",
  "data": [
    {"smiles": "NC1C=C(C(=O)O)CCC1", "note": "(stereo not shown) [Compound 5, 3-aminocyclohex-1-enecarboxylic acid hydrochloride]", "values": [
      {"measurement": "agonism of α1β3γ2-containing GABAA receptor (in words)", "setting": "[1]", "value": "not an agonist"},
      {"measurement": "Normalized Peak hGABAA α1β3γ2 Current (%) Agonist, Mean", "setting": "[1]; 0.1 μM", "value": 0.58, "unit": "%"},
      {"measurement": "Normalized Peak hGABAA α1β3γ2 Current (%) Agonist, Mean", "setting": "[1]; 0.3 μM", "value": 0.56, "unit": "%"},
      {"measurement": "Normalized Peak hGABAA α1β3γ2 Current (%) Agonist, Mean", "setting": "[1]; 1 μM", "value": 0.58, "unit": "%"},
      {"measurement": "Normalized Peak hGABAA α1β3γ2 Current (%) Agonist, Mean", "setting": "[1]; 3 μM", "value": 0.62, "unit": "%"},
      {"measurement": "Normalized Peak hGABAA α1β3γ2 Current (%) Agonist, Mean", "setting": "[1]; 10 μM", "value": 0.79, "unit": "%"},
      {"measurement": "Normalized Peak hGABAA α1β3γ2 Current (%) Agonist, Mean", "setting": "[1]; 30 μM", "value": 0.57, "unit": "%"},
      {"measurement": "Normalized Peak hGABAA α1β3γ2 Current (%) Agonist, Mean", "setting": "[1]; 100 μM", "value": 0.49, "unit": "%"},
      {"measurement": "Von frey test (MEAN ± S.E.M.)", "setting": "[2]; [3]", "value": "2.3 ± 0.34", "unit": "g"},
      {"measurement": "50% g Threshold, individual animals", "setting": "[2]; 0 Hour (pre-dose baseline, day 9 post surgery), 5 mpk IP, hydrochloride", "value": "0.99 g and 1.10 g and 1.56 g and 2.64 g and 2.81 g (2×) and 3.31 g (2×)"},
      {"measurement": "50% g Threshold, individual animals", "setting": "[2]; 0.75 Hour post dosing, 5 mpk IP, hydrochloride", "value": "3.33 g and 4.12 g and 2.81 g and 1.85 g and 4.34 g and 3.31 g and 2.37 g and 6.74 g"},
      {"measurement": "Von frey test (MEAN ± S.E.M.)", "setting": "[2]; 0.75 Hour, 5 mpk IP", "value": "3.6 ± 0.54", "unit": "g"},
      {"measurement": "50% g Threshold, individual animals", "setting": "[2]; 1.5 Hour post dosing, 5 mpk IP, hydrochloride", "value": "6.74 g (2×) and 5.10 g and 1.85 g and 3.71 g (2×) and 3.31 g and 1.56 g"},
      {"measurement": "Von frey test (MEAN ± S.E.M.)", "setting": "[2]; 1.5 Hour, 5 mpk IP", "value": "4.1 ± 0.70", "unit": "g"},
      {"measurement": "50% g Threshold, individual animals", "setting": "[2]; 3 Hour post dosing, 5 mpk IP, hydrochloride", "value": "6.42 g and 3.33 g and 2.81 g and 2.61 g and 3.71 g and 4.34 g and 0.82 g and 7.91 g"},
      {"measurement": "Von frey test (MEAN ± S.E.M.)", "setting": "[2]; 3 Hour, 5 mpk IP", "value": "4.0 ± 0.79", "unit": "g"},
      {"measurement": "neuropathic pain sensitivity / mechanical hypersensitivity (mechanical allodynia)", "setting": "[2]; hydrochloride", "value": "reduce tactile over-reactivity (mechanical allodynia)"},
      {"measurement": "neuropathic pain sensitivity / mechanical hypersensitivity (mechanical allodynia)", "setting": "[2]; listed as compound 5, hydrochloride", "value": "reduce neuropathic pain sensitivity"},
      {"measurement": "50% g Threshold, group Mean", "setting": "[2]; [4]", "value": 2.31, "unit": "g"},
      {"measurement": "50% g Threshold, group Mean", "setting": "[2]; [5]", "value": 3.61, "unit": "g"},
      {"measurement": "50% g Threshold, group Mean", "setting": "[2]; [6]", "value": 4.09, "unit": "g"}
    ]},
    {"smiles": "O=C(O)C1=CCNCC1", "note": "[Isoguvacine, isoguvacine]", "values": [
      {"measurement": "Normalized Peak hGABAA α1β3γ2 Current (%) Agonist, Mean", "setting": "[1]; 0.1 μM", "value": 0.55, "unit": "%"},
      {"measurement": "Normalized Peak hGABAA α1β3γ2 Current (%) Agonist, Mean", "setting": "[1]; 0.3 μM", "value": 1.02, "unit": "%"},
      {"measurement": "Normalized Peak hGABAA α1β3γ2 Current (%) Agonist, Mean", "setting": "[1]; 1 μM", "value": 1.92, "unit": "%"},
      {"measurement": "Normalized Peak hGABAA α1β3γ2 Current (%) Agonist, Mean", "setting": "[1]; 3 μM", "value": 4.94, "unit": "%"},
      {"measurement": "Normalized Peak hGABAA α1β3γ2 Current (%) Agonist, Mean", "setting": "[1]; 10 μM", "value": 21.18, "unit": "%"},
      {"measurement": "Normalized Peak hGABAA α1β3γ2 Current (%) Agonist, Mean", "setting": "[1]; 30 μM", "value": 53.29, "unit": "%"},
      {"measurement": "Normalized Peak hGABAA α1β3γ2 Current (%) Agonist, Mean", "setting": "[1]; 100 μM", "value": 79.91, "unit": "%"},
      {"measurement": "EC50", "setting": "[1]; GABAA receptor chloride flux assay, read-out: EC50, activation of α1β3γ2-containing GABAA receptors", "value": "23.3 µM and 19.7 µM"},
      {"measurement": "Von frey test (MEAN ± S.E.M.)", "setting": "[2]; [3]", "value": "2.3 ± 0.33", "unit": "g"},
      {"measurement": "50% g Threshold, individual animals", "setting": "[2]; 0 Hour (pre-dose baseline, day 9 post surgery), 5 mpk IP", "value": "0.99 g and 1.10 g and 1.85 g and 2.23 g and 2.81 g and 3.00 g and 3.31 g (2×)"},
      {"measurement": "50% g Threshold, individual animals", "setting": "[2]; 0.75 Hour post dosing, 5 mpk IP", "value": "1.31 g (2×) and 2.37 g (2×) and 2.81 g and 1.56 g (2×) and 0.99 g"},
      {"measurement": "Von frey test (MEAN ± S.E.M.)", "setting": "[2]; 0.75 Hour, 5 mpk IP", "value": "1.8 ± 0.23", "unit": "g"},
      {"measurement": "50% g Threshold, individual animals", "setting": "[2]; 1.5 Hour post dosing, 5 mpk IP", "value": "1.85 g (3×) and 2.37 g and 0.82 g and 2.81 g and 1.56 g and 2.64 g"},
      {"measurement": "Von frey test (MEAN ± S.E.M.)", "setting": "[2]; 1.5 Hour, 5 mpk IP", "value": "2.0 ± 0.23", "unit": "g"},
      {"measurement": "50% g Threshold, individual animals", "setting": "[2]; 3 Hour post dosing, 5 mpk IP", "value": "2.81 g and 6.74 g and 7.91 g and 3.33 g and 5.15 g and 4.34 g and 5.77 g and 3.31 g"},
      {"measurement": "Von frey test (MEAN ± S.E.M.)", "setting": "[2]; 3 Hour, 5 mpk IP", "value": "4.9 ± 0.64", "unit": "g"},
      {"measurement": "analgesia effect", "setting": "[2]; 3 hour time point, 5 mpk IP", "value": "significant analgesia effect"},
      {"measurement": "neuropathic pain sensitivity / mechanical hypersensitivity (mechanical allodynia)", "setting": "[2]", "value": "reduce neuropathic pain sensitivity"},
      {"measurement": "neuropathic pain sensitivity / mechanical hypersensitivity (mechanical allodynia)", "setting": "[2]; listed as isoguvacine", "value": "reduce tactile over-reactivity (mechanical allodynia)"},
      {"measurement": "50% g Threshold, group Mean", "setting": "[2]; [4]", "value": 2.32, "unit": "g"},
      {"measurement": "50% g Threshold, group Mean", "setting": "[2]; [5]", "value": 1.78, "unit": "g"},
      {"measurement": "50% g Threshold, group Mean", "setting": "[2]; [6]", "value": 1.97, "unit": "g"}
    ]}
  ]
}
